From patent publication US10688197B2, “Non-alcoholic fatty liver regulator 14-3-3 protein” (Korea University Research and Business Foundation, priority 2015, dated 2020) come the findings set out here.

Experiment [1] deals with HepG2 cells. The experiment can be described thus: mRNA expression by PCR in HepG2 cells. The class given is cell-based, human. The following applies: for mRNA expression of SREBP-1c and FAT/CD36: HepG2, overexpression, 200 μM oleic acid 72 hours, FIG. 7A. The procedure: For mRNA extraction, the corresponding cells were lysed with 1 ml/well of TRIzol (Invitrogen), 200 μl of chloroform was added thereto and mixed well, the resultant cells were maintained at room temperature for 5 minutes and then centrifuged at 12,000×g and 4° C. for 15 minutes, the obtained supernatant was mixed with 500 μl of isopropanol and then put on ice for 10 minutes, the resulting supernatant was centrifuged at 12,000×g and 4° C. for 15 minutes to remove a supernatant, and then pellets were dissolved with tertiary distilled water treated with diethyl pyrocarbonate (DEPC). 2 μg of mRNA was synthesized into cDNA using a Superscript First Strand cDNA Synthesis Kit (Bioneer, Daejeon, South Korea) and the synthesized cDNA as a template was amplified through polymerase chain reaction (PCR) using primers specific to PPARγ2, 14-3-3β, 14-3-3γ, SREBP-1c, SCD-1, ACC, FABP, FAT/CD36, and β-actin of humans, and was amplified through real-time PCR using primers specific to PPARγ2, 14-3-3β, 14-3-3γ, SREBP-1c, FAT/CD36, and GAPDH of mice. β-actin and GAPDH were used as controls to see whether mRNAs of the respective cells were compared in the same amount.
HepG2 cells were seeded in a 6-well plate at a density of 4×10^5 cells per each well, and then transfected with GFP-14-3-3β DNA (4 μg) or GFP-14-3-3γ DNA (4 μg) using an E-fection plus reagent (Lugen). A ratio of DNA to the E-fection plus reagent was 1:2, and this method was performed according to a manufacturer's manual. After transfection, […], and for mRNA extraction, the corresponding cells were lysed with 1 ml/well of TRIzol (Invitrogen), 200 μl of chloroform was added thereto and mixed well, the resultant cells were maintained at room temperature for 5 minutes and then centrifuged at 12,000×g and 4° C. for 15 minutes, the obtained supernatant was mixed with 500 μl of isopropanol and then put on ice for 10 minutes, and the resulting supernatant was centrifuged at 12,000×g and 4° C. for 15 minutes to remove a supernatant, and then pellets were dissolved with tertiary distilled water treated with diethyl pyrocarbonate (DEPC). 2 μg of mRNA was synthesized into cDNA using a Superscript First Strand cDNA Synthesis Kit (Bioneer, Daejeon, South Korea) and the synthesized cDNA as a template was amplified through polymerase chain reaction (PCR) using primers specific to PPARγ2 (SEQ ID NOS: 1 and 2), 14-3-3β (SEQ ID NOS: 3 and 4), 14-3-3γ (SEQ ID NOS: 5 and 6), SREBP-1c, FAT/CD36, and β-actin of humans, and was amplified through real-time PCR using primers specific to SREBP-1c, FAT/CD36, and GAPDH of mice. β-actin and GAPDH were used as controls to see whether mRNAs of the respective cells were compared in the same amount.

The subject of experiment [2] is HepG2 cells. Put plainly: Oil Red-O lipid accumulation in HepG2 cells. The class given is cell-based, human. As to conditions: for lipid accumulation by oleic acid: HepG2, overexpression, 200 μM oleic acid 72 hours, FIG. 9B. The procedure: (§1) HepG2 cells and primary mouse hepatocytes were separately seeded in a 6-well plate at a density of 4×10^5 cells per each well, and then transfected with GFP-14-3-3β DNA (1 μg) or GFP-14-3-3γ DNA (1 μg) and si-14-3-3β (10 μM, Santa Cruz) or si-14-3-3γ (10 μM, Santa Cruz) using an E-fection plus reagent (Lugen). A ratio of DNA to the E-fection plus reagent was 1:2, and this method was performed according to a manufacturer's manual. […] The stained cells were bleached with 1 ml of isopropanol and analyzed at a wavelength of 550 nm using a DU530 spectrophotometer (Beckman Instruments, Palo Alto, Calif.).

The test system of experiment [3] is primary mouse hepatocytes. Put plainly: Oil Red-O lipid accumulation in primary mouse hepatocytes. The following applies: for lipid accumulation by oleic acid: overexpression, 200 μM oleic acid 72 hours, FIG. 9B. The class given is cell-based. The procedure: as §1
In experiment [4] the test system is primary mouse hepatocytes. Put plainly: Triglyceride colorimetric assay in primary mouse hepatocytes. It is filed as cell-based. The following applies: FIG. 10A. The procedure: HepG2 cells and primary mouse hepatocytes were separately seeded in a 6-well plate at a density of 4×10^5 cells per each well, and then transfected with GFP-14-3-3β DNA (1 μg) or GFP-14-3-3γ DNA (1 μg) and si-14-3-3β (10 μM, Santa Cruz) or si-14-3-3γ (10 μM, Santa Cruz) using an E-fection plus reagent (Lugen). A ratio of DNA to the E-fection plus reagent was 1:2, and this method was performed according to a manufacturer's manual. After transfection, the cells were treated with 200 μM of oleic acid (OA) for 72 hours, and the amount of triglycerides was measured using a triglyceride colorimetric assay kit (Cayman Chemical). The corresponding cells were washed with ice-cold PBS and then scraped using a standard diluent assay reagent, the scrapping process was repeated using a sonicator 20 times to lyse the cells, and the lysed cells were reacted with an enzyme buffer solution for 15 minutes, followed by measurement using an ELISA reader (Bio-Rad Laboratories, Inc) at a wavelength of 550 nm.

Where [5] appears, read: primary mouse hepatocytes, overexpression, 200 μM oleic acid 72 hours.

For “14-3-3γ: 14-3-3 isoform protein overexpressed by DNA transfection; decreases the transcriptional activity of PPARγ2; proposed active ingredient”, in the experiment on HepG2 cells [1], the “mRNA expression of SREBP-1c and FAT/CD36” value was “reduced”. Besides, the “lipid accumulation by oleic acid” value (with HepG2 cells [2]; in experiment [3]) was “reduced” in each case. For the same compound, in experiment [4] (setting [5]), the triglyceride accumulation result is given as “reduced”.

As to `CCCCCCCC/C=C\CCCCCCCC(=O)O` [oleic acid], the “mRNA expression of PPARγ2” value in the experiment with HepG2 cells [1] (HepG2, oleic acid concentration-dependent, FIG. 6A) is recorded as “increased”. Moreover, the “mRNA expression of lipid metabolism-associated genes (PPARγ2 target genes)” value in the experiment on HepG2 cells [1] (HepG2, oleic acid concentration-dependent, FIG. 6C) is reported as “increased”. The “mRNA expression amounts of 14-3-3β and 14-3-3γ” value in the experiment on HepG2 cells [1] (HepG2, oleic acid treatment, FIG. 6A) is on record as “no changes”. For the same compound, the lipid accumulation entry was “increased” with HepG2 cells [2] (HepG2, concentration-dependent treatment of oleic acid, FIG. 9A) and “increased” in experiment [3] (concentration-dependent treatment of oleic acid, FIG. 9A). In experiment [4] (primary mouse hepatocytes treated with oleic acid), the triglyceride accumulation entry was “increased”.

“14-3-3β: 14-3-3 isoform protein overexpressed by DNA transfection; increases the transcriptional activity of PPARγ2 by binding to PPARγ2”: the “mRNA expression of SREBP-1c and FAT/CD36” value with HepG2 cells [1] was “further increased”. Further, the “lipid accumulation by oleic acid” value (with HepG2 cells [2]; in experiment [3]) was “increased” throughout. For the same compound, in experiment [4] (setting [5]), the triglyceride accumulation entry is recorded as “further increased”.
